Laboratory results taken from patent US20200270588A1, “GLUCOSYL TRANSFERASE POLYPEPTIDES AND METHODS OF USE” (Syngenta Participations AG, priority 2017, published 2020).
Values joined by “and” are separate entries in the source; they are usually repeats but may differ in a detail not shown here. Equal entries are not always repeated.

Assays:
[1] = tested on: non-transgenic w/t Zea mays seedlings; experiment: LC/MS of foliar extracts after herbicide treatment; assay type: in vivo; conditions: 24 and 48 h after treatment, 80% acetonitrile/water extract
Description: (§1) The expected glucosides of herbicides V and VI corresponding to those seen in vitro are also similarly produced in transgenic […] plants expressing Zea mays BX9 or expressing mutant derivatives of Zea mays BX9. For example, LC/MS analysis of extracts of leaves obtained by maceration and extraction into 80% acetonitrile/water 24 and 48 h after treatment with herbicides V and VI indicate that the same beta-glucosides that are produced by the enzymes in vitro are produced in planta.

[2] = tested on: transgenic tobacco plants expressing SEQ ID NO1 or SEQ ID NO 17; experiment: LC/MS of foliar extracts after herbicide treatment; assay type: in vivo; conditions: 24 and 48 h after treatment, 80% acetonitrile/water extract
Description: as §1

[3] = tested on: SEQ ID 47, mutant bx-type glucosyl transferase; experiment: LC/MS glucosyl transferase assay (glucoside peak area), purified enzyme; assay type: biochemical; conditions: about 60 min, ~15 pmol enzyme, nd = not detectable
Description: (§2) In an alternative method for assaying the various enzymes, the test glucosyl transferase enzyme is reacted with substrates exactly as above except that the assay is stopped by adding an equal volume of acetonitrile. Alternatively 50 or 100 μl samples from assay reactions are added to 500 μl ethyl acetate to stop the reaction. In this case samples are then vortexed and 400 μl of the ethyl acetate partition removed, dried down, and resuspended in 100 μl 80:20 acetonitrile/water. The formation of product gluco side and/or disappearance of substrate test herbicide is then monitored directly by LC/MS. Samples are analyzed by LC-MS using an Agilent 1290 liquid chromatography system and Thermo Q-Exactive mass spectrometer. The chromatography is achieved on a Waters Acquity C18 BEH (50×2.1 mm) 1.7 μm particle size column, using a 6 minute gradient run of Water (0.2% formic acid) and Acetonitrile. The Q-Exactive is operated in positive ionisation electrospray mode, using Full scan-AIF mode, at 35,000 resolution, between 100-800 m/z. All analytes are identified from the full scan data to within at least 5 ppm accuracy of their predicted pseudo-molecular ion [M+H]^+ m/z value. In order to obtain quantitative data standard curves are run using herbicides and herbicide glucosides synthesized as standards. Where these synthetic glucosides were not available the LC/MS assay could only be used to provide relative data.
DNA sequences, optimized for E. coli codon usage, were cloned, expressed and the various proteins purified and assayed as described in the foregoing examples. Using the UDP assay (as described in examples 1, 3 and 6) the data obtained from the Zea mays bx8 w/t protein and its variants was noisy due to relatively high background rates in DMSO reagent blanks. The values reported in the table 15 were thus monitored by LC/MS as described in example 1.

[4] = molecular target: T1, Zea mays bx8 (SEQ ID No: 2) with GIGVD peptide insert in place of D442 (Zea mays, UniProt Q8W2B7, INS441GIGV); experiment: as above; assay type: biochemical; conditions: LC/MS assay run for 30 min
T1 construct: His tag (N); made in house; host or cells: E. coli, pET24a
Description: as §2, with “Where these synthetic glucosides were not available the LC/MS assay could only be used to provide relative data.” left out

T1 sequence (Q8W2B7 other isoform, or with tags, fused parts or gaps INS441GIGV): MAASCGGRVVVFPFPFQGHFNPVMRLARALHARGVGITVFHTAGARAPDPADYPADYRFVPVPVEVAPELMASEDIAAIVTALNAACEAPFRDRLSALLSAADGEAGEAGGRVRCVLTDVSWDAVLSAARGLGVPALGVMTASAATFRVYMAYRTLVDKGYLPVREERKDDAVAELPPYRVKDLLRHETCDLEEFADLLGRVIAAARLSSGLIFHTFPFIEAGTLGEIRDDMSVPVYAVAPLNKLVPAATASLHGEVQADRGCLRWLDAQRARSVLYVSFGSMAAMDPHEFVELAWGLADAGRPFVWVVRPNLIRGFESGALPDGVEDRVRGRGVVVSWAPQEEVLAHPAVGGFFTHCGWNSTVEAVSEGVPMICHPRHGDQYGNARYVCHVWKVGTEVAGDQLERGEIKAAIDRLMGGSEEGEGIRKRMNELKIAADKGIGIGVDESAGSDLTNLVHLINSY

Row | SMILES | glucoside found in foliar extract [1] | glucoside found in foliar extract [2] | integrated peak area of beta-glucoside product [3] | integrated peak area of glucoside product [4]
1 | CON1C(=O)N(c2cc(C(F)(F)F)ccn2)C(O)[C@@H]1C (some centres unmarked) [Compound VI] | the S-beta stereoisomer O-glucoside product of VI | mainly the S-beta stereoisomer O-glucoside product of VI | 1.68E+05 and 1.05E+05 | 
2 | CN1CC(O)N(c2cc(C(F)(F)F)ccn2)C1=O (centres unmarked) [Compound V] |  |  | 8.67E+05 and 6.30E+05 | 2.5E6 units
